What was measured:
[1] = target: Adenosine A2B (ADORA2B) receptor (Homo sapiens (Human), UniProt P29275); experiment: ADORA2B Receptor Binding Assay; conditions: radioligand binding, membrane stock
Outline: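 Radioligand competition binding on human A2B receptor membranes, 1 h at room temperature, then filtration through BSA-presoaked GF/C filters and ³H counting by scintillation. Inhibition expressed as % of high control after background subtraction.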

[2] = target: Adenosine A2a (ADORA2A) receptor (Homo sapiens (Human), UniProt P29274); experiment: ADORA2A Receptor Binding Assay; conditions: radioligand binding, membrane stock
Adenosine A2a (ADORA2A) receptor, sequence (P29274 whole entry): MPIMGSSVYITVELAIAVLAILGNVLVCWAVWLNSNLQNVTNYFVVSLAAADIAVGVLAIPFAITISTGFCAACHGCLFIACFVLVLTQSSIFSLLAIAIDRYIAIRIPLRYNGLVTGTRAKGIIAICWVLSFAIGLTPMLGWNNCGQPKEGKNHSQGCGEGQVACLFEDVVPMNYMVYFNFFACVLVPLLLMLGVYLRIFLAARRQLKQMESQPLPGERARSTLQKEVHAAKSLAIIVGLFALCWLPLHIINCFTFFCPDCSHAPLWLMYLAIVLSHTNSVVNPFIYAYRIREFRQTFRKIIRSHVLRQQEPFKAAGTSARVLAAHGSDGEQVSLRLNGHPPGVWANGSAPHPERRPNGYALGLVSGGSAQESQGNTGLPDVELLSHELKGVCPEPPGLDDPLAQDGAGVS
Outline: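 Test compounds incubated with A2a receptor membranes and a ³H-labelled radioligand for 2 hours at room temperature, then filtered through PEI-presoaked GF/C plates and washed. Filter-bound ³H counted by scintillation; % inhibition calculated from background-subtracted signal relative to high control.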

Adenosine A2B (ADORA2B) receptor, sequence (P29275 whole entry): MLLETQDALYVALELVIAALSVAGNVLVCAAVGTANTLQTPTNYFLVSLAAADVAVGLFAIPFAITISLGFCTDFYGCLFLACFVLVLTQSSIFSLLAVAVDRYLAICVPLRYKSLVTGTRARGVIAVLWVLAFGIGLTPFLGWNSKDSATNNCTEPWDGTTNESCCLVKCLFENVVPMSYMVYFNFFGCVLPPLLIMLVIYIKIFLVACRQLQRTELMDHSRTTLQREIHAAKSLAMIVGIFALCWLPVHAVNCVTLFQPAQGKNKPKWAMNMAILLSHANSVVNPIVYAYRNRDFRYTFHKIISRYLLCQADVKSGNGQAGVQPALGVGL

SMILES | IC50 [1] | IC50 [2]
CCNC(=O)Nc1cn2cc(C)nc2c(-c2ccco2)n1 [Compound 223, 1-ethyl-3-[8-(furan-2-yl)-2-methylimidazo[1,2-a]pyrazin-6-yl]urea] | 10 to 100 nM | < 10 nM
Cc1cn2c(Br)c(N)nc(-c3ccc(F)cc3)c2n1 [Compound 206, 5-bromo-8-(4-fluorophenyl)-2-methylimidazo[1,2-a]pyrazin-6-amine] | 100 to 1000 nM | 100 to 1000 nM
Cc1cn2cc(NS(C)(=O)=O)nc(-c3ccco3)c2n1 [Compound 224, N-[8-(furan-2-yl)-2-methylimidazo[1,2-a]pyrazin-6-yl]methanesulfonamide] | > 1000 nM | 100 to 1000 nM
COc1ccc(-c2nc(N)cc3nc(C)nn23)cc1 [Compound 115, 5-(4-methoxyphenyl)-2-methyl-[1,2,4]triazolo[1,5-c]pyrimidin-7-amine] | > 1000 nM | 100 to 1000 nM
Cc1cn2c(Cl)c(N)nc(-c3ccccc3C)c2n1 [Compound 216, 5-chloro-2-methyl-8-(2-methylphenyl)imidazo[1,2-a]pyrazin-6-amine] | > 1000 nM | > 1000 nM
Cc1ccc(-c2nc(NC(=O)C3CC3)cc3nc(C4COC4)nn23)o1 [Compound 110, N-[5-(5-methylfuran-2-yl)-2-(oxetan-3-yl)-[1,2,4]triazolo[1,5-c]pyrimidin-7-yl]cyclopropanecarboxamide] | 10 to 100 nM | < 10 nM
CCNC(=O)Nc1cc2nc(C)nn2c(-c2ccco2)n1 [Compound 155, 1-ethyl-3-[5-(furan-2-yl)-2-methyl-[1,2,4]triazolo[1,5-c]pyrimidin-7-yl]urea] | 10 to 100 nM | 10 to 100 nM
CC(C)c1nc2cc(NC(=O)C3CC3)nc(-c3ccco3)n2n1 [Compound 58, N-[5-(furan-2-yl)-2-propan-2-yl-[1,2,4]triazolo[1,5-c]pyrimidin-7-yl]cyclopropanecarboxamide] | < 10 nM | < 10 nM
CC(=O)Nc1cc2nc(C(F)(F)F)nn2c(-c2ccco2)n1 [Compound 59, N-[5-(furan-2-yl)-2-(trifluoromethyl)-[1,2,4]triazolo[1,5-c]pyrimidin-7-yl]acetamide] | 10 to 100 nM | < 10 nM
Cc1nc2cc(NC(=O)C3CC3)nc(-c3ccc(F)c(F)c3)n2n1 [Compound 128, N-[5-(3,4-difluorophenyl)-2-methyl-[1,2,4]triazolo[1,5-c]pyrimidin-7-yl]cyclopropanecarboxamide] | 100 to 1000 nM | 10 to 100 nM
Cc1ccc(-c2nc3[nH]c(C(C)(C)O)cc3c3nc(C(F)(F)F)nn23)o1 [Compound 147, 2-[7-(5-methylfuran-2-yl)-4-(trifluoromethyl)-3,5,6,8,10-pentazatricyclo[7.3.0.0^2,6]dodeca-1(9),2,4,7,11-pentaen-11-yl]propan-2-ol] | < 10 nM | < 10 nM
CC(=O)Nc1cc2nc(C(C)C)nn2c(-c2cnco2)n1 [Compound 49, N-[5-(1,3-oxazol-5-yl)-2-propan-2-yl-[1,2,4]triazolo[1,5-c]pyrimidin-7-yl]acetamide] | 100 to 1000 nM | 10 to 100 nM
Cc1nc2cc(NC(=O)C(F)(F)F)nc(-c3ccco3)n2n1 [Compound 143, 2,2,2-trifluoro-N-[5-(furan-2-yl)-2-methyl-[1,2,4]triazolo[1,5-c]pyrimidin-7-yl]acetamide] | 100 to 1000 nM | 10 to 100 nM
Cc1ccc(-c2nc(NC(=O)C3CC3)cc3nc(C4CC4)nn23)o1 [Compound 62, N-[2-cyclopropyl-5-(5-methylfuran-2-yl)-[1,2,4]triazolo[1,5-c]pyrimidin-7-yl]cyclopropanecarboxamide] | 10 to 100 nM | < 10 nM
Cc1nc2cc(NC(=O)C3CC3)nc(-c3ccc(C(C)C)o3)n2n1 [Compound 55, N-[2-methyl-5-(5-propan-2-ylfuran-2-yl)-[1,2,4]triazolo[1,5-c]pyrimidin-7-yl]cyclopropanecarboxamide] | 100 to 1000 nM | < 10 nM
Nc1nc(-c2ccccc2)n2nc(C(F)(F)F)nc2c1Cl [Compound 87, 8-chloro-5-phenyl-2-(trifluoromethyl)-[1,2,4]triazolo[1,5-c]pyrimidin-7-amine] | 10 to 100 nM | < 10 nM
Cc1ccc(-c2nc(NC(=O)C3CC3)cc3nc(C4CCOCC4)nn23)o1 [Compound 54, N-[5-(5-methylfuran-2-yl)-2-(oxan-4-yl)-[1,2,4]triazolo[1,5-c]pyrimidin-7-yl]cyclopropanecarboxamide] | 100 to 1000 nM | < 10 nM
Cc1ccc(-c2nc(NC(=O)C3CC3)cn3nc(C(F)(F)F)nc23)o1 [Compound 189, N-[8-(5-methylfuran-2-yl)-2-(trifluoromethyl)-[1,2,4]triazolo[1,5-a]pyrazin-6-yl]cyclopropanecarboxamide] | < 10 nM | < 10 nM

Continued, values first:

IC50 [1] | IC50 [2] | SMILES
10 to 100 nM | < 10 nM | Cc1ccc(-c2nc(NC(=O)C3CC3)cn3cc(CO)nc23)o1 [Compound 209, N-[2-(hydroxymethyl)-8-(5-methylfuran-2-yl)imidazo[1,2-a]pyrazin-6-yl]cyclopropanecarboxamide]
> 1000 nM | < 10 nM | CN1CC(c2nc3cc(NC(=O)C4CC4)nc(-c4ccco4)n3n2)C1 [Compound 135, N-[5-(furan-2-yl)-2-(1-methylazetidin-3-yl)-[1,2,4]triazolo[1,5-c]pyrimidin-7-yl]cyclopropanecarboxamide]
> 1000 nM | 10 to 100 nM | Cc1cccc(-c2nc(N)c(Cl)c3nc(C)nn23)n1 [Compound 76, 8-chloro-2-methyl-5-(6-methylpyridin-2-yl)-[1,2,4]triazolo[1,5-c]pyrimidin-7-amine]
< 10 nM | < 10 nM | Cc1nc2cc(NC(=O)C3CC3)nc(-c3ccc(Br)o3)n2n1 [Compound 52, N-[5-(5-bromofuran-2-yl)-2-methyl-[1,2,4]triazolo[1,5-c]pyrimidin-7-yl]cyclopropanecarboxamide]
10 to 100 nM | < 10 nM | Cc1ccc(-c2nc(NC(=O)C3CC3)cc3nc(C4CCCC4)nn23)o1 [Compound 66, N-[2-cyclopentyl-5-(5-methylfuran-2-yl)-[1,2,4]triazolo[1,5-c]pyrimidin-7-yl]cyclopropanecarboxamide]
> 1000 nM | > 1000 nM | Cc1cncc(-c2nc(N)c(Cl)c3nc(C)nn23)c1 [Compound 57, 8-chloro-2-methyl-5-(5-methylpyridin-3-yl)-[1,2,4]triazolo[1,5-c]pyrimidin-7-amine]
> 1000 nM | > 1000 nM | Cc1nc2cc(NC(=O)C3CC3)nc(-c3ccc(S(=O)(=O)O)cc3)n2n1 [Compound 125, 4-[7-(cyclopropanecarbonylamino)-2-methyl-[1,2,4]triazolo[1,5-c]pyrimidin-5-yl]benzenesulfonic acid]
100 to 1000 nM | 100 to 1000 nM | Cc1cn2c(Br)c(N)nc(-c3ccccc3)c2n1 [Compound 203, 5-bromo-2-methyl-8-phenylimidazo[1,2-a]pyrazin-6-amine]
10 to 100 nM | < 10 nM | Cc1nc2c(-c3ccc(C)o3)nc(N)cn2n1 [Compound 168, 2-methyl-8-(5-methylfuran-2-yl)-[1,2,4]triazolo[1,5-a]pyrazin-6-amine]
100 to 1000 nM | 100 to 1000 nM | Cc1nc2c3nc(C(F)(F)F)[nH]c3nc(-c3ccc(C)o3)n2n1 [Compound 161, 8-methyl-5-(5-methylfuran-2-yl)-2-(trifluoromethyl)-3H-[1,2,4]triazolo[5,1-f]purine]
